According to publication PMC8472287, “Betulinic Acid Decorated with Polar Groups and Blue Emitting BODIPY Dye: Synthesis, Cytotoxicity, Cell-Cycle Analysis and Anti-HIV Profiling” (Biomedicines, 2021):
Counter-ions that a name gives are not always drawn. Like-named read-outs stand apart in the source and are kept apart here.

Experiments:
CCRF-CEM = assay: MTS cytotoxicity assay, CCRF-CEM; format: cell-based; conditions: Homo sapiens, 72 h, 3-day incubation
Outline: (§1)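 72 h continuous compound exposure, 37 °C/5% CO2; seeding 25,000–35,000 cells/mL; MTS 1–4 h, OD 490 nm; TCS = OD treated/mean OD control × 100%; technical duplicates, ≥3 biological replicates.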

CEM-DNR = assay: MTS cytotoxicity assay, CEM-DNR; format: cell-based; conditions: Homo sapiens, 72 h, CEM-DNR (daunorubicin resistant), 3-day incubation
Outline: as §1

K562 = assay: MTS cytotoxicity assay, K562; format: cell-based; conditions: Homo sapiens, 72 h, 3-day incubation
Outline: as §1

K562-Tax = assay: MTS cytotoxicity assay, K562-Tax; format: cell-based; conditions: Homo sapiens, 72 h, K562-Tax (paclitaxel-resistant), 3-day incubation
Outline: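 Cells seeded at 25,000–35,000 cells/mL were exposed to four-fold dilutions of compound in DMSO for 72 h at 37 °C, 5% CO2. MTS added for 1–4 h, OD read at 490 nm; tumour cell survival calculated as percent of control-well OD.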

A549 = assay: MTS cytotoxicity assay, A549; format: cell-based; conditions: Homo sapiens, 72 h, 3-day incubation
Outline: as §1

HCT116 = assay: MTS cytotoxicity assay, HCT116; format: cell-based; conditions: Homo sapiens, HCT-116, 72 h, 3-day incubation
Outline: as §1

HCT116p53−/− = assay: MTS cytotoxicity assay, HCT116p53−/−; format: cell-based; conditions: Homo sapiens, HCT116-p53-null, 72 h, HCT116p53−/− (null p53 gene), 3-day incubation
Outline: as §1

U2OS = assay: MTS cytotoxicity assay, U2OS; format: cell-based; conditions: Homo sapiens, 72 h, 3-day incubation
Outline: as §1

MRC-5 = assay: MTS cytotoxicity assay, MRC-5; format: cell-based; conditions: Homo sapiens, MRC5, 72 h, MRC-5 normal fibroblasts, 3-day incubation
Outline: as §1

BJ = assay: MTS cytotoxicity assay, BJ; format: cell-based; conditions: Homo sapiens, 72 h, BJ normal fibroblasts, 3-day incubation
Outline: as §1

entire cell line panel [1] = assay: MTS cytotoxicity assay, whole panel (summary in words); conditions: maximal tested concentration
CCRF-CEM lymphoblasts [2] = assay: Mitotic marker pH3Ser10 flow cytometry; format: cell-based, human; conditions: 5 × IC50
Procedure: (§2) CCRF-CEM cells were seeded in 6-well plates at a density of 1 × 10^6/well. […] Cells were then harvested, washed with cold 1 × PBS and fixed in ice-cold 70% ethanol. Fixed cells were incubated overnight at −20 °C, washed in hypotonic citrate buffer, treated with RNase (50 μg mL^−1) and incubated with propidium iodide for 15 min. DNA content was analysed using Becton Dickinson flow cytometer and cell cycle data were analysed in the program ModFitLT (Verity, Carrollton, TX, USA). Apoptosis was measured in a logarithmic model expressing the percentage of the particles with propidium content lower than cells in G0/G1 phase (<G1) of the cell cycle. The mitotic marker pH3Ser10 antibody (Sigma) and secondary anti-mouse-FITC antibody (Sigma) were used for labelling and subsequent flow cytometry analysis of ethanol-fixed CCRF-CEM cells.

CCRF-CEM lymphoblasts [3] = assay: BrDU incorporation analysis (DNA synthesis); format: cell-based, human; conditions: 24 h incubation
Procedure: Cells were cultivated as in the method above and pulse-labelled with 10 μM 5-bromo-2-deoxyuridine (BrDU) for 30 min before collection to the test tubes. The cells were washed with cold 1 × PBS and fixed in ice-cold 70% ethanol. Before analysis, they were washed with 1 × PBS and incubated in 2M HCl for 30 min at room temperature. Following neutralization with 0.1M Na2B4O7 (borax), the cells were washed with 0.5% Tween-20 and 1% BSA in 1 × PBS. The cell pellets were stained using a primary anti-BrdU antibody (Exbio, Vestec, Czech Republic) for 30 min at room temperature and a secondary anti-mouse-FITC antibody (Sigma). The samples were then incubated with propidium iodide (0.1 mg mL^−1), treated with RNase A (0.5 mg mL^−1) for 1 h at room temperature in the dark and analysed as above.

CCRF-CEM lymphoblasts [4] = assay: BrU incorporation analysis (RNA synthesis); format: cell-based, human; conditions: 24 h, 5 × IC50 (high concentration)
entire cell line panel [5] = test system: entire cell line panel
HEK 293 cells = conditions: Resazurin assay
CCRF-CEM lymphoblasts [6] = assay: Cell cycle and apoptosis analysis (flow cytometry, propidium iodide); format: cell-based, human; conditions: 5 × IC50
Procedure: as §2

Row | SMILES | IC50 (CCRF-CEM) | IC50 (CEM-DNR) | IC50 (K562) | IC50 (K562-Tax) | IC50 (A549) | IC50 (HCT116) | IC50 (HCT116p53−/−) | IC50 (U2OS) | IC50 (MRC-5) | IC50 (BJ) | cytotoxic effect in the cell line panel (in words) (entire cell line panel [1]) | rate of cell division by mitotic marker pH3Ser10 (in words) (CCRF-CEM lymphoblasts [2]) | fraction of proliferating BrDU positive CCRF-CEM cells (in words) (CCRF-CEM lymphoblasts [3]) | RNA synthesis by BrU (in words) (CCRF-CEM lymphoblasts [4]) | cytotoxic effect in the cell line panel (in words) (entire cell line panel [5]) | concentration at which highly toxic to HEK 293 cells (HEK 293 cells) | increase of the percentage of cells in the S-phase compared to untreated control (CCRF-CEM lymphoblasts [6])
1 | C=C(C)[C@@H]1CC[C@]2(C(=O)O)CC[C@]3(C)[C@H](CC[C@@H]4[C@@]5(C)CC[C@H](O)C(C)(C)[C@@H]5CC[C@]43C)[C@@H]12 [BA, Betulinic acid] | > 50 µM | 23.1 µM | > 50 µM | > 50 µM | 22.7 µM | > 50 µM | > 50 µM | 29.7 µM | > 50 µM | > 50 µM | weak or medium cytotoxic effect |  |  |  |  |  | 
2 | C=C(C)[C@@H]1CC[C@]2(C(=O)NCCCN)CC[C@]3(C)[C@H](CC[C@@H]4[C@@]5(C)CC[C@H](O)C(C)(C)[C@@H]5CC[C@]43C)[C@@H]12 [Compound 3, (3β)-N-(3-Aminopropyl)-3-hydroxylup-20(29)-ene-28-amide] | 0.21 µM | 1.22 µM | 0.9 µM | 0.37 µM | 1.8 µM | 0.82 µM | 0.44 µM | 0.89 µM | 2.59 µM | 1.91 µM |  | low rate of cell division | reduced the fraction of proliferating BrDU positive CCRF-CEM cells | stalled RNA synthesis | high cytotoxicity | lower than 5 µM | 
3 | C=C(C)[C@@H]1CC[C@]2(C(=O)N3CCN(CCN)CC3)CC[C@]3(C)[C@H](CC[C@@H]4[C@@]5(C)CC[C@H](O)C(C)(C)[C@@H]5CC[C@]43C)[C@@H]12 [Compound 14, (3β)-28-[4-(2-Aminoethyl)piperazine-1-yl]-3-hydroxylup-20(29)-ene-28-one hydrochloride] | 0.29 µM | 0.35 µM | 0.4 µM | 0.52 µM | 1.26 µM | 0.39 µM | 0.44 µM | 0.42 µM | 1.58 µM | 1.59 µM |  | low rate of cell division | reduced the fraction of proliferating BrDU positive CCRF-CEM cells | stalled RNA synthesis | high cytotoxicity | lower than 5 µM | about 50%
